Series [1] addresses T1, Human immunodeficiency virus type 1 reverse transcriptase (Human immunodeficiency virus 1, UniProt Q72547). In words: Inhibition of HIV1 RT using 17-mer DNA/Alexa Fluor 488 5'-end labeled DNA/Alexa Fluor 555-aha-dUTP as primer/template/substrate preincubated for 10 mins followed substarte addition measured after 30 mins by FRET assay.
For series [2], the system named is Human immunodeficiency virus 1. Description: Antiviral activity against HIV-1 LAI infected in human PBM cells after 7 days. The class given is functional, organism-based. The settings on record: Human immunodeficiency virus 1, LAI, 168 h.
In a further series the test system is CCRF-CEM. In words: (§1) Cytotoxicity against HIV1 infected human CEM cells assessed as reduction in cell viability after 7 days by MTT assay. The class given is cell-based. The settings on record: ccrf-cem, 168 h. (In general: Tetrazolium dyes change colour on reduction, which living cells bring about.)
In another series the test system is PBMC. Description: (§2) Cytotoxicity against HIV1 infected human PBMC cells assessed as reduction in cell viability after 7 days by MTT assay. The class given is cell-based. Conditions: pbmc, 168 h.
Series [3] can be described thus: Ratio of CC50 for human PBM cells to EC50 for HIV-1 LAI infected in human PBM cells.
The next series deals with Vero. In words: (§3) Cytotoxicity against HIV1 infected African green monkey Vero cells assessed as reduction in cell viability after 7 days by MTT assay. The class given is cell-based. Conditions: chlorocebus sabaeus, vero, 168 h.
Series [4] in a line: as §1. The class given is cell-based, CCRF-CEM. The settings on record: HIV1 infected CEM (CCRF-CEM) cells.
Series [5] is described as follows: as §2. Conditions: HIV1 infected PBMC cells. Type of series: cell-based.
Series [6] in a line: as §3. Type of series: cell-based. Conditions: chlorocebus sabaeus, HIV1 infected Vero cells.
Series [7] deals with Human immunodeficiency virus type 1 reverse transcriptase (Human immunodeficiency virus 1, UniProt Q72547, K103N).
For series [8], the target named is Human immunodeficiency virus type 1 reverse transcriptase (Human immunodeficiency virus 1, UniProt Q72547, V108I).
In series [9] the target is Human immunodeficiency virus type 1 reverse transcriptase (Human immunodeficiency virus 1, UniProt Q72547, E138K).
In series [10] the test system is Human immunodeficiency virus 1. In words: Ratio of IC50 for HIV1 RT K103N mutant to IC50 for wild type HIV1 RT.
The test system of series [11] is Human immunodeficiency virus 1. Description: Ratio of IC50 for HIV1 RT E138K mutant to IC50 for wild type HIV1 RT.
The test system of series [12] is Human immunodeficiency virus 1.
The target of series [13] is T1, Human immunodeficiency virus type 1 reverse transcriptase. In words: Inhibition of HIV1 RT using A5'-end 32P-labeled 24-mer primer/a48-mer template preincubated for 5 mins followed by 0.5 uM nucleotides addition measured after 15 mins by gel-based primer extension assay.
The target is the same in series [14]. Description: Inhibition of HIV1 RT using A5'-end 32P-labeled 24-mer primer/a48-mer template preincubated for 5 mins followed by 1 uM nucleotides addition measured after 10 mins by gel-based primer extension assay.
Series [15] has the same target. In words: Inhibition of HIV1 RT using A5'-end 32P-labeled 24-mer primer/a48-mer template preincubated for 5 mins followed by 10 uM nucleotides addition measured after 5 mins by gel-based primer extension assay.
The target is the same in series [16]. Description: Inhibition of HIV1 RT using A5'-end 32P-labeled 24-mer primer/a48-mer template preincubated for 5 mins followed by 25 uM nucleotides addition measured after 2 mins by gel-based primer extension assay.

Each structure is given as a SMILES string. pEC50, pIC50: −log10 of the molar value.

Experimental findings from ChEMBL document CHEMBL4425139, “Discovery, characterization, and lead optimization of 7-azaindole non-nucleoside HIV-1 reverse transcriptase inhibitors” (Bioorg Med Chem Lett, 2016) are described below.

For orientation: pIC50 means the negative decadic logarithm of the IC50, by convention in mol/L. By pEC50 is commonly meant −log10 of the EC50, conventionally taken in molar units. By CC50 is commonly meant the concentration at which the toxic effect on the cells reaches its halfway point. `Cc1ccc(-c2cnc3c(c2)c(C#N)cn3Cc2ccccc2)cc1`: in series [1], the pIC50 was less than 4.00. The same molecule had a pEC50 in [2] of 6.31. The CC50 in the series on CCRF-CEM is more than 100 µM; in the series on PBMC it was more than 100 µM; with Vero, 8.1 µM. Besides, the “Ratio CC50/EC50” value in series [3] is more than 100.

The molecule `CCCc1c2c(nc3c1c(C#N)cn3C1CCCCC1)CCC2=O` gave a pIC50 in series [1] of less than 4.00. Besides, in series [2], the pEC50 was 6.16. The CC50 with CCRF-CEM, with PBMC and with Vero was more than 100 µM in each case. Also, in series [3], the “Ratio CC50/EC50” value is more than 100.

For `Cc1ccnc2c1NC(=O)c1cccnc1N2C1CC1` [NEVIRAPINE], in series [2], the pEC50 was 7.40. For the same molecule, the CC50 at 168 h in series [4], in [5] and in series [6] was more than 100 µM each time.

For `CC(=O)c1c(C)nc2c(c(C#N)cn2Cc2ccccc2)c1-c1ccc([N+](=O)[O-])cc1`, the pIC50 in [1] was 5.20; in series [7], 4.82; in series [8], less than 4.00; in series [9] it was 4.23. Further, the pEC50 in series [2] is 6.72. Moreover, the CC50 in the series on CCRF-CEM, in the series with PBMC and in the series on Vero was more than 100 µM each time. In addition, the figures for the Ratio IC50 in series [10], in [11] and in [12] were 2.4, 9.4 and 12, respectively. In addition, the “Ratio CC50/EC50” value in series [3] is given as more than 100.

For `CC1(C)CC(=O)c2c(nc3c(c(C#N)cn3Cc3ccccc3)c2-c2ccccc2)C1`, the pIC50 is 6.14 in [1]; 5.04 in series [7]; 5.00 in [13]; less than 4.00 in series [8]; 4.16 in [9]; 5.05 in series [14]. In addition, the pIC50 was 6.02 in [15] and 6.14 in series [16]. The molecule also showed a negative logarithm of the EC50 (pEC50) in series [2] of 6.46. Also, the CC50 with CCRF-CEM, with PBMC and with Vero was more than 100 µM in each case. For the same molecule, the results for the Ratio IC50 in [10], in series [11] and in series [12] were 28, 211 and 11, respectively. For the same molecule, the “Ratio CC50/EC50” value in series [3] is more than 100.

Turning to `CC1(C)CC(=O)c2cc3c(C#N)cn(Cc4ccccc4)c3nc2C1`, the pIC50 in series [1] was 4.92. In addition, the pEC50 in [2] is 6.04. Moreover, the CC50 in the series on CCRF-CEM was 3.7 µM; with PBMC, more than 100 µM; in the series on Vero, more than 100 µM. The “Ratio CC50/EC50” value in [3] is more than 100.

With `CCCCn1cc(C#N)c2c(-c3ccc(C(F)(F)F)cc3F)c3c(nc21)-c1ccccc1C3=O`, the pIC50 in [1] was 6.24; in series [7], 4.55; in series [8], less than 4.00; in series [9], less than 4.00. For the same molecule, in series [2], the pEC50 is 6.08. Besides, the cytotoxic concentration (CC50) is 48 µM in the series with CCRF-CEM, more than 100 µM in the series with PBMC and 6.8 µM in the series on Vero. Further, the Ratio IC50 in [10] is 49. The “Ratio CC50/EC50” value in [3] is reported as more than 100.

Turning to `CC1(C)CC(=O)c2c(nc3c(c(C#N)cn3Cc3ccccc3)c2-c2ccc(F)cc2)C1`, in [1], the pIC50 was 5.54.

Take `CC1(C)CC(=O)c2c(nc3c(c(C#N)cn3Cc3ccccc3)c2-c2cccc(Cl)c2)C1`: the pIC50 in series [1] was 4.24. Also, the pEC50 in series [2] is 6.00.

`CC(C)(C)n1cc(C#N)c2cc(C=O)cnc21` gave a pIC50 in series [1] of 4.85. This molecule gave a pEC50 in series [2] of 6.31. Besides, the values for the CC50 with CCRF-CEM, in the series with PBMC and in the series on Vero were more than 100 µM, more than 100 µM and 8.1 µM, respectively. In addition, the “Ratio CC50/EC50” value in series [3] is listed as more than 100.

Take `O=C1Nc2ccc(Cl)cc2[C@@](C#CC2CC2)(C(F)(F)F)O1` [EFAVIRENZ]: the CC50 in the series with CCRF-CEM, with PBMC and with Vero was more than 100 µM each time.

Take `Cc1cccc(C)c1-c1c2c(nc3c1c(C#N)cn3Cc1ccccc1)CC(C)(C)CC2=O`: the pIC50 in series [1] was 4.59. The same molecule showed a pEC50 in series [2] of less than 4.00.

For `C=CCn1cc(C#N)c2cc(C#N)cnc21`, in series [1], the negative logarithm of the IC50 (pIC50) was less than 4.00. Besides, in series [2], the pEC50 is 6.12. For the same molecule, the CC50 in the series on CCRF-CEM, with PBMC and in the series on Vero was more than 100 µM each time. In addition, the “Ratio CC50/EC50” value in [3] is listed as more than 100.

`CC1(C)CC(=O)c2c(nc3c(c(C#N)cn3Cc3ccccc3)c2-c2c(F)cccc2F)C1` gave a pIC50 in series [1] of 6.44. In [2], the pEC50 was 6.34.

For `CC1(C)CC(=O)c2c(nc3c(c(C#N)cn3Cc3ccccc3)c2-c2ccc([N+](=O)[O-])cc2)C1`, in series [1], the pIC50 is 5.85.

Consider `CC(=O)c1cc2c(-c3ccc(N(C)C)cc3)c3c(nc2[nH]1)-c1ccccc1C3=O`, for which the pIC50 in series [1] was 4.82. Besides, in series [2], the pEC50 is 6.03. The CC50 with CCRF-CEM was 24 µM; in the series on PBMC it was more than 100 µM; in the series with Vero, 11 µM. Also, the “Ratio CC50/EC50” value in [3] was more than 100.

In series [1], `N#Cc1cn(Cc2ccccc2)c2ncc(Br)cc12` had a pIC50 of less than 4.00. In [2], the pEC50 was 6.33. Besides, the CC50 in the series on CCRF-CEM, with PBMC and with Vero was more than 100 µM each time. Besides, the “Ratio CC50/EC50” value in [3] is more than 100.
